The structures appear in SMILES notation.

The assay deals with HCV replication. As to the kind of experiment: Replicon Assay (Huh-lucubineo-ET cells, luciferase readout). As to conditions: Hepatitis C virus; ET (Huh-lucubineo-ET) HCV replicon cell line; luciferase activity 48-72 hours after compound addition; 6 dilutions. Type of assay: cell-based. Here is the method: A cell line, ET (Huh-lucubineo-ET) was used for screening of compounds of the present invention for inhibition of HCV replication. The ET cell line was stably transfected with RNA transcripts harboring a I389luc-ubi-neo/NS3-3′/ET; replicon with firefly luciferase-ubiquitin-neomycin phosphotransferase fusion protein and EMCV-IRES driven NS3-5B polyprotein containing the cell culture adaptive mutations (E1202G; T1280I; K1846T) (Krieger at al, 2001 and unpublished). The ET cells were grown in DMEM, supplemented with 10% fetal calf serum, 2 mM Glutamine, Penicillin (100 IU/mL)/Streptomycin (100 μg/mL), 1× nonessential amino acids, and 250 μg/mL G418 (“Geneticin”). They were all available through Life Technologies (Bethesda, Md.). The cells were plated at 0.5−1.0×10^4 cells/well in the 96 well plates and incubated for 24 hrs before adding the test compounds. The compounds were then added to the cells to achieve a final concentration of 5 or 50 μM. Luciferase activity was measured 48-72 hours later by adding a lysis buffer and the substrate (Catalog number Glo-lysis buffer E2661 and Bright-Glo luciferase system E2620 Promega, Madison, Wis.). Cells should not be too confluent during the assay. Percent inhibition of replication was plotted relative to no compound control. For EC50 (effective concentration at which 50% of the maximum inhibition is observed) determinations, 6 dilutions of each compound were used. Compounds were typically diluted 3 fold to span a concentration range of 250 fold. EC50 and similarly TC50 values were calculated by fitting % inhibition at each concentration to the following equation:
% inhibition=100%/[(EC50/[I])^b+1]
where b is Hill's coefficient.
The term EC50 denotes the concentration giving half of the maximal effect. As to `CCCOc1ccc(-c2ccc(Cn3cc4nc(-c5cccc(F)c5F)nc-4cn3)cc2[N+](=O)[O-])cc1` [Compound 260, 2-(2,3-Difluoro-phenyl)-5-(2-nitro-4′-propoxy-biphenyl-4-ylmethyl)-5H-imidazo[4,5-d]pyridazine], the half-maximal effective concentration (EC50) was determined as 0.146 µM. Under `COc1ccc(-c2ccc(Cn3cc4nc(-c5cccc(F)c5F)nc-4cn3)c([N+](=O)[O-])c2)c(C(F)(F)F)c1` [Compound 201, 2-(2,3-Difluoro-phenyl)-5-(4-methoxy-3-nitro-2-trifluoromethyl-biphenyl-4-ylmethyl)-5H-imidazo[4,5-d]pyridazine] stands 0.05 µM.

In turn, `COc1cccc(Cn2cc3nc(-c4cccc(F)c4F)nc-3cn2)c1` [Compound 287, 2-(2,3-Difluoro-phenyl)-5-(3-methoxy-benzyl)-5H-imidazo[4,5-d]pyridazine] registered an EC50 not below 50 µM. To `COc1ccc(-c2ccc(Cn3cc4nc(-c5cccc(F)c5F)nc-4cn3)nn2)c(Cl)c1` [Compound 228, 5-[6-(2-Chloro-4-methoxy-phenyl)-pyridazin-3-ylmethyl]-2-(2,3-difluoro-phenyl)-5H-imidazo[4,5-d]pyridazine] belongs 0.112 µM; to `CCCCc1ccc(-c2ccc(Cn3cc4nc(-c5cccc(F)c5F)nc-4cn3)cn2)cc1C(F)(F)F` [Compound 347, 5-[6-(4-Butyl-3-trifluoromethyl-phenyl)-pyridin-3-ylmethyl]-2-(2,3-difluoro-phenyl)-5H-imidazo[4,5-d]pyridazine], 2.59 µM; to `Fc1cccc(-c2nc3cnn(Cc4ccc5sccc5c4)cc-3n2)c1F` [Compound 284, 5-Benzothiophen-5-ylmethyl-2-(2,3-difluoro-phenyl)-5H-imidazo[4,5-d]pyridazine], not below 50 µM. To `Fc1cccc(-c2nc3cnn(Cc4ccc(-c5ccc6c(c5)OCO6)nn4)cc-3n2)c1F` [Compound 219, 5-(6-Benzo[1,3]dioxol-5-yl-pyridazin-3-ylmethyl)-2-(2,3-difluoro-phenyl)-5H-imidazo[4,5-d]pyridazine] belongs not below 50 µM; to `Fc1cc(Cn2cc3nc(-c4cccc(F)c4F)nc-3cn2)ccc1Br` [Compound 309, 5-(4-Bromo-3-fluoro-benzyl)-2-(2,3-difluoro-phenyl)-5H-imidazo[4,5-d]pyridazine], 61 µM. Under `Fc1ccccc1-c1nc2cnn(Cc3ccc(-c4ccc(C(F)(F)F)cc4C(F)(F)F)cn3)cc-2n1` [Compound 267, 5-[5-(2,4-Bis-trifluoromethyl-phenyl)-pyridin-2-ylmethyl]-2-(2-fluoro-phenyl)-5H-imidazo[4,5-d]pyridazine] stands 1.3 µM; under `Fc1cccc(-c2nc3cnn(Cc4ccc(-c5ccc(C(F)(F)F)cc5C(F)(F)F)cc4)cc-3n2)c1F` [Compound 244, 5-(2′,4′-Bis-trifluoromethyl-biphenyl-4-ylmethyl)-2-(2,3-difluoro-phenyl)-5H-imidazo[4,5-d]pyridazine], 0.009 µM. The compound `COC(=O)c1cc(Cn2cc3nc(-c4cccc(F)c4F)nc-3cn2)ccc1-c1ccc(OC)cc1C(F)(F)F` [Compound 288, 4-[2-(2,3-Difluoro-phenyl)-imidazo[4,5-d]pyridazin-5-ylmethyl]-4′-methoxy-2′-trifluoromethyl-biphenyl-2-carboxylic acid methyl ester] had a concentration for a half-maximal effect (EC50) of 0.2 µM. Regarding `CC(=O)COc1ccc(-c2ccc(Cn3cc4nc(-c5cccc(F)c5F)nc-4cn3)nn2)c(C(F)(F)F)c1` [Compound 318, 1-(4-{6-[2-(2,3-Difluoro-phenyl)-imidazo[4,5-d]pyridazin-5-ylmethyl]-pyridazin-3-yl}-3-trifluoromethyl-phenoxy)-propan-2-one], the EC50 was found to be 0.663 µM. As to `COc1ccc(-c2ccc(Cn3cc4nc(-c5cccc(F)c5F)nc-4cn3)c(F)c2)c(C(F)(F)F)c1` [Compound 259, 2-(2,3-Difluoro-phenyl)-5-(3-fluoro-4′-methoxy-2′-trifluoromethyl-biphenyl-4-ylmethyl)-5H-imidazo[4,5-d]pyridazine], the EC50 stood at 0.02 µM.

(Values after patent US20090226398A1, “ANTI-VIRAL COMPOUNDS, COMPOSITIONS, AND METHODS OF USE” (Genelabs Technologies, Inc., priority 2008, published 2009).)
